The test relates to gastric acid secretion. Briefly: Inhibitory activity on gastric acid secretion, Shay Method (pylorus-ligated rats). The format is in vivo, male Wistar rats. Conditions: Rattus norvegicus, 2 h, i.d. route, rats, Shay Method, two hours after pylorus ligature. From the text: Inhibitory activity on gastric acid secretion, Shay Method [Shay, H., Komarov, S. A., Fels, S. S., Merange, D., Grvenstein, M., Siplet, H.: Gastroenterology, 5, 43 (1945)--Visscher, F. E., Seay, P. H., Taxelaar, A. P., Veldhamp, W., Vander Brook, M. J.: J. Pharmac. Exp. Ther., 110, 188 (1954)--"Animal Experiments in Pharmacological Analysis", F. R. Domer; C. C. Thomas Pub, Springfield, Ill., USA, 1970, p. 140].
In this test, male Wistar rats weighing 200 to 250 grams are used, which rats are denied food from the day prior to that of the test, with free access to water. Batches which each contain at least 4 animals are used.
The rats are anesthetized with ethyl ether, a laparotomy is carried out on them and their pylori are ligatured, and then the abdominal incision is stitched up. Administration of the products, with the vehicle for the control batch, is carried out intraduodenally (i.d.) before stitching up the abdominal incision. The dose administered for the first test is 40 mg/kg and the 50% effective dose (ED50) by the i.d. route is also determined in a second test. The vehicle used is 5% w/v gum arabic in doubly-distilled water.
Two hours after ligaturing the pylorus, the rats are sacrificed by prolonged anesthesia with ethyl ether and the volume of the gastric juice is measured and the total acidity is determined using a pH meter equipped with an automatic burette. The percentage of inhibition of the gastric acid secretion is determined, with respect to the control batch, for each product and for each dose tested.
The results obtained for some of the derivatives of the present invention are summarized, as non-limiting examples, in Table II.

A word on the ED50: it is the dose that gives a 50% effect, or the effect in half of the subjects. Consider `c1ccc2c(c1)ncn2CCCCN1CCN(c2nsc3ccccc23)CC1` [Example 82], for which the ED50 (read-out: ED50 (inhibition of gastric acid secretion)) is 15 mg/kg. Besides, the inhibition in vivo at 40 mg/kg (intraduodenal, Dose = 40 mg/kg, read-out: Percentage of inhibition of gastric acid secretion) stood at 53%.

For the origin of these results see US5532234A, “Use of 1-[4-[4-aryl (or heteroaryl)-1-piperazinyl]-butyl)-1H-azole derivatives for the preparation of medicaments intended for the treatment of disorders of gastric secretion” (Laboratories Del Dr. Esteve, S.A., priority 1993, dated 1996).
